Source: patent US9670244B2, “Oxysterol compounds and the hedgehog pathway” (THE REGENTS OF THE UNIVERSITY OF CALIFORNIA, priority 2006, dated 2017)
Several values for one entry are separate records, joined by “and”; a condition that tells them apart may be missing. Identical values can stand only once. Entries after “also recorded” stand apart in the source; their conditions may differ.

Experiments:
[1] = test system: M2-10B4 marrow stromal cells; assay: Alkaline phosphatase activity assay in M2-10B4 marrow stromal cells; format: cell-based, mouse
Protocol: (§1) The cells used are the pluripotent M2 cells (M2-10B4) that we previously characterized for their ability to become osteoblastiic and adipocyte cells. […] These cells are derived from bone marrow, are easy to maintain and last for many passages in vitro. […] Among the markers of osteogenic differentiation that were assayed were alkaline phosphatase activity, osteocalcin mRNA expression and mineral formation in cultures of marrow stromal cells.
We tested the effect of the synthetic oxysterols, oxy-1 through oxy-15, on alkaline phosphatase activity in M2-10B4 marrow stromal cells. Cells were treated with the oxysterols for 4 days after which they were collected and analyzed by colorimetric assay for alkaline phosphatase activity.

[2] = test system: M2-10B4 marrow stromal cells; assay: 45Ca incorporation (mineralization) assay in M2-10B4 marrow stromal cells; format: cell-based, mouse
Protocol: as §1
We tested the effect of oxysterols on mineralization in M2-10B4 marrow stromal cells. Cells were treated with the oxysterols for 14 days after which the amount of mineral formed in the cultures was quantified using a radioactive ^45Ca incorporation assay.

[3] = test system: Gli-dependent luciferase reporter; assay: Gli-dependent luciferase reporter (Gli-Luc) assay in M2 cells; format: cell-based, mouse; conditions: for Induction of Gli reporter activity: ShhN 200 ng/ml, oxysterols 5 μM, TO 1 or 5 μM, 48 hours; for Gli reporter activity (synthetic oxysterols, FIG. 10): M2-10B4 Marrow Stromal Cells
Protocol: (§2) Cells were plated into 24-well plates and transfected the next day with Gli-dependent firefly luciferase and Renilla luciferase vectors and where indicated, Smo or Ptch expression vectors. […] Cells were treated for 48 hours prior to assessing luciferase activity using the Dual Luciferase Reporter Assay System (Promega, Madison, Wis.) according to manufacturer's instructions. Experiments were performed in triplicate and error bars indicate one standard deviation.
To further examine Hh pathway activation by oxysterols, a reporter assay using a luciferase reporter driven by a multimerized Gli-responsive element (5′-[…]-3′) (SEQ ID NO:4) was used.

osteocalcin (OCN) mRNA = conditions: 4 μM pre-treatment, 5 μM SS 8 days
Protocol: (§3) Colorimetric alkaline phosphatase activity assay on whole cell extracts and Northern blotting for OCN and 18S rRNA were performed by conventional procedures. Gene expression was quantified using a Storm840 phosphorimager and ImageQuant software (Amersham, Piscataway, N.J.).

[4] = test system: Gli-dependent luciferase reporter; conditions: 4 μM pre-treatment
Protocol: as §2

[5] = test system: Runx2 DNA binding activity
Protocol: Oligonucleotides were annealed to their complementary sequences by boiling and cooling. The probes were end-labeled with γ^32P-ATP using polynucleotide kinase and column purified. […] Nuclear extracts (10 μg) were incubated in binding buffer (10 mM Tris pH 7.5, 100 mM NaCl, 1 mM DTT, 1 mM EDTA, 4% glycerol), 1 μg poly(dIdC) and 0.2 ng of labeled probe for 20 minutes at room temperature, and complexes were resolved on a cooled, 6% acrylamide 1×TBE gel. Subsequently, gels were dried and exposed to film.

Gli-1 and Ptch mRNA = assay: Q-RT-PCR of hedgehog pathway genes in M2 cells; format: cell-based, mouse; conditions: for Inhibition of oxysterol-induced Gli-1 and Ptch mRNA expression: M2 cells, SS 24 hours, pretreatment or co-treatment with agent
Protocol: Q-RT-PCR was performed using reverse-transcribed RNA isolated from M2 cells using phenol/chloroform method. PCR reactions were performed using iQ SYBR Green Supermix and an iCycler RT-PCR Detection System (BIO-RAD Laboratories, Hercules, Calif.). Primer sequences for Gli-1, Gli-2, Gli-3, Shh and Ihh were kindly provided by Dr. Fanxin Long (Washington University, St. Louis, Mo.). Ptch and Smo primer sequences are available upon request. Q-RT-PCR data were normalized to cyclophilin expression and relative expression levels were calculated using the […] method (Livak et al. (2001) Methods 25, 402-408).

rat femur periosteum = assay: Rat periosteal femur model, bone formation scoring; format: in vivo; set-up: key to Bone formation Score, individual animal / Bone formation Score (radiograph scoring), individual animal: 4: Marked amount and contiguous on eriosteum; 3: Moderate amount and contiguous on eriosteum; 2: Small amount and contiguous on periosteum; 1: Small amount and small segments on periosteum; 0: None; conditions: for Bone formation score, Average / Bone formation score (radiograph scoring), Average: n=6
Protocol: Male SD rats were treated for two weeks with Oxy13 (or a control vehicle). The Oxy13 was delivered by an Alzet pump to the perioseum, in three doses or by daily injections. The treatment regimens were: two weeks treatment, n=6 per group, vehicle and three Oxy 13 doses continuous and two doses daily injection; and four weeks treatment, vehicle and two Oxy 13 doses, n=6/group. The bone in-growth endpoints that were evaluated were microradiography, histomorphometry and blinded, randomized visual scoring.

pMARCKS, pPKA, pCREB = assay: Western blotting of phosphorylated proteins in M2 cell lysates; format: cell-based, mouse; conditions: SS 5 μM 10 min to 48 hours; PMA 30 min
Protocol: After treatments, cells were lysed in lysis buffer, protein concentrations determined using the Bio-Rad protein assay (Hercules, Calif.), and SDS-PAGE was performed, probing for native and phosphorylated proteins.
We previously reported that oxysterol-induced osteoblastic differentiation of cells is mediated via protein kinase C (PKC)- and protein kinase A (PKA)-dependent mechanisms. The role of these signaling pathways in regulating the different markers of osteoblastic differentiation appears to be both specific and overlapping. To begin elucidating the possible role of PKC and PKA in mediating oxysterol-induced Hh pathway activation, we examined the effect of PKC and PKA inhibitors on markers of Hh pathway activation. […] Similarly, oxysterol-induced Gli-1 and Ptch expression was inhibited in cells whose PKC stores were depleted following overnight pretreatment with 1 μM PMA (FIG. 6c,d). We next examined whether oxysterols induced PKC activation by assessing the levels of phosphorylated MARCKS (pMARCKS), a PKC substrate, by Western blotting.
To examine the possible role of PKA in oxysterol-induced Hh pathway activation, the effect of PKA inhibitor, H-89, previously found to inhibit the induction of some, but not all, markers of osteoblastic differentiation, on oxysterol-induced Gli-1 and Ptch mRNA expression was assessed by Q-RT-PCR.

Smo−/− MEFs = assay: Alkaline phosphatase assay in Smo-/- mouse embryonic fibroblasts; format: cell-based; conditions: two days; BMP-7 50 ng/ml
Protocol: as §3

[6] = Mus musculus, M210B4, 96 h, read-out: Fold Induction over Control Untreated Cells (alkaline phosphatase activity)
[7] = Mus musculus, M210B4, 336 h, read-out: 45Ca Incorporation (fold induction over control untreated cells)

## CC1=C2C[C@H]3[C@@H](CC=C4C[C@@H](O)CC[C@@]43C)[C@@H]2CC[C@]12O[C@@H]1C[C@H](C)CN[C@H]1[C@H]2C [cyclopamine, reference compound]
[1]; M2 cells, 5 μM SS, 3 days
  Inhibition of SS-induced ALP activity: significantly inhibited
[2]; 4 μM pre-treatment, 5 μM SS 14 days
  Inhibition of oxysterol-increased mineralization: inhibited
[3]; pre-treatment 2 hours, 4 μM
  Inhibition of oxysterol- or ShhN-induced Gli-luc activity: inhibited
Osteocalcin (OCN) mRNA
  Inhibition of oxysterol-induced OCN expression: inhibited
[4]
  Inhibition of oxysterol-induced Gli-luc activity in C3H10T½ cells: inhibited
[5]
  Inhibition of oxysterol-stimulated Runx2 DNA binding activity: completely inhibited

## O=S(=O)(NCCNC/C=C/c1ccc(Br)cc1)c1cccc2cnccc12 [Oxy H-89, H-89]
Gli-1 and Ptch mRNA
  Inhibition of oxysterol-induced Gli-1 and Ptch mRNA expression: did not inhibit

## O=S(=O)(c1ccccc1)N(CC(F)(F)F)c1ccc(C(O)(C(F)(F)F)C(F)(F)F)cc1 [TO-901317, reference compound]
[3]
  Induction of Gli reporter activity: no activation

## Cc1cccc(C[C@](C)(O)C2CCC3C4CC=C5C[C@@H](O)CC[C@]5(C)C4CC[C@@]32C)c1 (some centres unmarked) [Oxy11]
[1]; 2.5 μM, 4 days
  Fold Induction over Control Untreated Cells (alkaline phosphatase activity): 6 fold
[3]
  Gli reporter activity (synthetic oxysterols, FIG. 10): stimulate the Gli1 reporter; also recorded: stimulation of Gli reporter activity

## CC(=O)c1c(O)c(C)c(O)c(Cc2c(O)c3c(c(C(=O)/C=C/c4ccccc4)c2O)OC(C)(C)C=C3)c1O [rottlerin]
Gli-1 and Ptch mRNA
  Inhibition of oxysterol-induced Gli-1 and Ptch mRNA expression: dose-dependently inhibited
Gli-1 and Ptch mRNA; all concentrations tested, without SS
  Effect of agent alone on Gli-1 and Ptch gene expression: no significant effect on gene expression

## CC(C)CCC[C@@H](C)[C@H]1CC[C@H]2[C@@H]3[C@H](O)C=C4C[C@@H](O)CC[C@]4(C)[C@H]3CC[C@]12C [7-α-hydroxycholesterol, reference compound]
[3]
  Induction of Gli reporter activity: not observed

## CC(C)CCCC[C@](C)(O)[C@H]1CC[C@H]2[C@@H]3CC=C4C[C@@H](O)CC[C@]4(C)[C@H]3CC[C@@]21C [Oxy12, (3S,8S,9S,10R,13S,14S,17S)-2,3,4,7,8,9,10,11,12,13,14,15,16,17-tetradecahydro-17-((S)-2-hydroxy-7-methyloctan-2-yl)-10,13-dimethyl-1H-cyclopenta[a]phenanthren-3-ol]
[1]; [6]
  fold induction at 5 µM: 22
  fold induction at 10 µM: 80
[2]; [7]
  fold induction at 5 µM: 2
  fold induction at 10 µM: 4
  fold induction at 15 µM: 7
[3]
  Gli reporter activity (synthetic oxysterols, FIG. 10): stimulate the Gli1 reporter; also recorded: stimulation of Gli reporter activity

## C=C(C)CCC[C@](C)(O)[C@H]1CC[C@H]2[C@@H]3CC=C4C[C@@H](O)CC[C@]4(C)[C@H]3CC[C@@]21C [Oxy13, (3S,8S,9S,10R,13S,14S,17S)-2,3,4,7,8,9,10,11,12,13,14,15,16,17-tetradecahydro-17-((S)-2-hydroxy-6-methylhept-6-en-2-yl)-10,13-dimethyl-1H-cyclopenta[a]phenanthren-3-ol]
[1]; [6]
  fold induction at 2.5 µM: 200
  fold induction at 5 µM: 334
[2]; [7]
  fold induction at 5 µM: 5
  fold induction at 10 µM: 34
  fold induction at 15 µM: 38
Rat femur periosteum; Pump 2 wk 0.167 mg/ml
  Bone formation Score, individual animal: 3
  Bone formation score, Average: 3.00
Rat femur periosteum; Pump 2 wk 1.67 mg/ml
  Bone formation Score, individual animal: 1 and 4 (3×) and 3 and 2
  Bone formation score, Average: 3.00
Rat femur periosteum; Pump 4 wk 0.167 mg/ml
  Bone formation Score (radiograph scoring), individual animal: 0 and 2 (3×) and 3 (2×)
  Bone formation score (radiograph scoring), Average: 2.00
Rat femur periosteum; Pump 4 wk 1.67 mg/ml
  Bone formation Score (radiograph scoring), individual animal: 2 (2×) and 3 and 1 (2×) and 0
  Bone formation score (radiograph scoring), Average: 1.50
[3]
  Gli reporter activity (synthetic oxysterols, FIG. 10): stimulate the Gli1 reporter; also recorded: stimulation of Gli reporter activity

## CC(C)CCC[C@@H](C)[C@H]1CC[C@H]2[C@@H]3C(=O)C=C4C[C@@H](O)CC[C@]4(C)[C@H]3CC[C@]12C [7-ketocholesterol, reference compound]
[3]
  Induction of Gli reporter activity: not observed

## CC(C)CCC[C@](C)(O)[C@H]1CC[C@H]2[C@@H]3CC=C4C[C@@H](O)CC[C@]4(C)[C@H]3CC[C@@]21C [Oxy 20S, 20(S)-hydroxycholesterol, reference compound]
[2]; [7]
  fold induction at 7.5 µM: 4

## CCCCCCCCCCCCCC(=O)O[C@@H]1[C@@H](C)[C@@]2(O)[C@@H](C=C(CO)C[C@]3(O)C(=O)C(C)=C[C@@H]23)[C@@H]2C(C)(C)[C@]12OC(C)=O [PMA, Phorbol 12-Myristate 13-Acetate]
Gli-1 and Ptch mRNA
  Inhibition of oxysterol-induced Gli-1 and Ptch mRNA expression: inhibited
pMARCKS, pPKA, pCREB
  Phosphorylated MARCKS (pMARCKS) levels: clearly induced MARCKS phosphorylation

B1: BMB-7: bone morphogenetic protein 7 (protein, UniProt P18075 293-431, looked up)
Bone morphogenetic protein 7: STGSKQRSQNRSKTPKNQEALRMANVAENSSSDQRQACKKHELYVSFRDLGWQDWIIAPEGYAAYYCEGECAFPLNSYMNATNHAIVQTLVHFINPETVPKPCCAPTQLNAISVLYFDDSSNVILKKYRNMVVRACGCH
Smo−/− MEFs
  ALP activity / osteoblastic differentiation in Smo−/− MEFs: did induce ALP activity
